According to the supplement of paper PMC10307832:

Tests used:
Assay in all cases: relative viability (nuclei count vs DMSO), 5 days (fraction); higher = more cells survive
MLN4924 + Crizotinib = compound: NS(=O)(=O)OC[C@@H]1C[C@@H](n2ccc3c(N[C@H]4CCc5ccccc54)ncnc32)C[C@@H]1O [MLN4924] + C[C@@H](Oc1cc(-c2cnn(C3CCNCC3)c2)cnc1N)c1c(Cl)ccc(F)c1Cl [Crizotinib] (partner 1 µM)
Procedure, shortened: (§1)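 After 5 days of treatment, lung cancer cells in 1536-well plates were fixed and stained in a single step (final 0.05% Triton X-100, 1% formaldehyde, 1 ug/ml Hoechst) and their nuclei counted on 4× images. Treatment had been applied by pin tool the day after seeding as one drug alone or as a fixed anchor-drug dose with five library-drug doses (not always all listed) in √10 steps. Relative viability is the nuclei count of treated wells divided by that of vehicle wells, and values are medians of duplicate plates.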

GSK126 + Olaparib = compound: CC[C@H](C)N1C=C(C2=C(C=C(C=C21)C3=CN=C(C=C3)N4CCNCC4)C(=O)NCC5=C(C=C(NC5=O)C)C)C [GSK126] + O=C(c1cc(Cc2n[nH]c(=O)c3ccccc23)ccc1F)N1CCN(C(=O)C2CC2)CC1 [Olaparib] (partner 8 µM)
Procedure, shortened: as §1

MLN4924 + Linsitinib = compound: NS(=O)(=O)OC[C@@H]1C[C@@H](n2ccc3c(N[C@H]4CCc5ccccc54)ncnc32)C[C@@H]1O [MLN4924] + C[C@]1(O)C[C@@H](c2nc(-c3ccc4ccc(-c5ccccc5)nc4c3)c3c(N)nccn32)C1 [Linsitinib] (partner 1 µM)
Procedure, shortened: as §1

Carboplatin + Decitabine = compound: C1CC(C1)(C(=O)O)C(=O)O.[NH2-].[NH2-].[Pt+2] [Carboplatin] + Nc1ncn([C@H]2C[C@H](O)[C@@H](CO)O2)c(=O)n1 [Decitabine] (partner 2 µM)
Procedure, shortened: as §1

Cell Line	relative viability (MLN4924 + Crizotinib; first compound 0.04 µM)	relative viability (MLN4924 + Crizotinib; first compound 0.1265 µM)	relative viability (MLN4924 + Crizotinib; first compound 0.4 µM)	relative viability (MLN4924 + Crizotinib; first compound 1.265 µM)	relative viability (MLN4924 + Crizotinib; first compound 4 µM)	relative viability (GSK126 + Olaparib; first compound 0.08 µM)	relative viability (GSK126 + Olaparib; first compound 0.253 µM)	relative viability (GSK126 + Olaparib; first compound 0.8 µM)	relative viability (GSK126 + Olaparib; first compound 2.53 µM)	relative viability (GSK126 + Olaparib; first compound 8 µM)	relative viability (MLN4924 + Linsitinib; first compound 0.04 µM)	relative viability (MLN4924 + Linsitinib; first compound 0.1265 µM)	relative viability (MLN4924 + Linsitinib; first compound 0.4 µM)	relative viability (MLN4924 + Linsitinib; first compound 1.265 µM)	relative viability (MLN4924 + Linsitinib; first compound 4 µM)	relative viability (Carboplatin + Decitabine; first compound 0.08 µM)	relative viability (Carboplatin + Decitabine; first compound 0.253 µM)	relative viability (Carboplatin + Decitabine; first compound 0.8 µM)	relative viability (Carboplatin + Decitabine; first compound 2.53 µM)	relative viability (Carboplatin + Decitabine; first compound 8 µM)
NCI-H727	0.672	0.274	0.266	0.274	0.222	0.866	0.805	0.68	0.812	0.646	0.402	0.169	0.234	0.21	0.24	1.12	0.956	0.882	0.935	0.861
NCI-H838	0.635	0.535	0.235	0.154	0.139	0.82	0.817	0.738	0.714	0.769	0.675	0.283	0.208	0.161	0.149	0.479	0.492	0.425	0.412	0.386
NCI-H1355	1.04	1.03	0.963	0.484	0.208	0.809	0.754	0.772	0.752	0.774	0.875	0.704	0.789	0.207	0.211	0.337	0.379	0.329	0.333	0.28
NCI-H1437	0.854	0.77	0.626	0.336	0.164	0.649	0.621	0.605	0.554	0.575	0.959	0.828	0.466	0.221	0.103	0.508	0.556	0.529	0.508	0.464
NCI-H1651	0.913	0.85	0.76	0.357	0.167	0.183	0.175	0.176	0.178	0.161	1.13	0.973	0.431	0.334	0.135	0.773	0.633	0.589	0.574	0.509
NCI-H1666	1.18	0.669	0.306	0.25	0.236	0.745	0.723	0.742	0.729	0.76	1.01	0.504	0.263	0.225	0.252	0.715	0.824	0.774	0.752	0.653
NCI-H1734	0.688	0.622	0.305	0.121	0.131	0.633	0.685	0.628	0.701	0.756	1.01	1.09	0.519	0.178	0.155	0.485	0.46	0.483	0.465	0.438
NCI-H1755	0.798	0.761	0.52	0.181	0.154	0.9	0.922	0.877	0.826	0.822	1.07	0.701	0.447	0.159	0.2	0.702	0.674	0.737	0.668	0.607
